In brackets after ≈: the same amount, converted by molar mass.
Legend:
[1] = target: T1, MtMetAP1c (Mycobacterium tuberculosis, UniProt P9WK19); experiment: MetAP enzyme inhibition, Morrison Ki (Met-AMC fluorescence); assay type: biochemical, M. tuberculosis; conditions: Morrison Ki method
T1 construct: made in house
Method in brief: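 Purified recombinant MtMetAP1c (1 µM) in 50 mM HEPES pH 8.0, 150 mM NaCl, CoCl2 at three molar equivalents of enzyme; reaction started with 50 μM Met-AMC, released AMC followed continuously by fluorescence (ex 380/em 460 nm). Ki by Morrison method from three substrate and ten inhibitor concentrations, in triplicate.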

[2] = tested on: P. aeruginosa; experiment: Growth inhibition screening (broth dilution); assay type: cell-based, Pseudomonas aeruginosa
Method in brief: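 Standard NCCLS broth dilution in nutrient broth, with compounds dissolved in DMSO and tested at a final 250 µg/mL per well. About 2.5 × 10^5 cells/mL were inoculated and incubated overnight at 37 °C. Growth was read as culture turbidity at 590 nm.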

[3] = tested on: E. faecalis; experiment: Minimum bactericidal concentration; assay type: cell-based, Enterococcus faecalis
[4] = tested on: E. coli; experiment: Growth kinetics; assay type: cell-based, Escherichia coli
Description: (§1) Bacterial strains were tested as mentioned in Habib et al.. Briefly, ½ MIC, MIC and 2MIC values of PS9 were taken to assess the growth of bacterial strains whereas untreated cells and media were taken as positive and negative control, respectively.

[5] = tested on: E. faecalis; experiment: Growth kinetics; assay type: cell-based, Enterococcus faecalis
Description: as §1

[6] = Cytotoxicity assay (MTT); assay type: cell-based; conditions: human, HEK293 cells, read-out: viable HEK293 cells
Description: PS9 was tested for cytotoxicity against human embryonic kidney (HEK293) cells using a colorimetric MTT assay. HEK293 cells were grown at 37 °C in a humidified environment of 5% CO2 in DMEM media enriched with 10% FBS and 1% penicillin, streptomycin solution. HEK293 cells (1 × 10^4) were seeded in triplicate and incubated overnight in a CO2 incubator. After the treatment (5–200 μM) with PS9, the cells were kept for 48 h at 37 °C. Freshly prepared 5 mg/mL MTT was supplied to the samples and kept on incubation at 37 °C for 4–5 h. DMSO was added to solubilize the formazan crystals. A microplate reader (Bio-Rad, Hercules, CA, USA) was used for taking absorbance at 570 nm and all the experiments were done in triplicate.

[7] = tested on: G. mellonella larvae; experiment: In vivo toxicological assessment, larval survival; design: species or system Galleria mellonella; conditions: 100, 250, 500, 750 and 1000 μg/mL; up to 5 days
Description: The objective of this experiment was to assess the in vivo toxicity of PS9 using larvae of G. mellonella. […] The results obtained using Galleria larvae show a strong correlation to those generated using mammals and larvae have the advantage of producing results within 48 h, being inexpensive to purchase and house, and being free from the legal and ethical restrictions that affect mammalian testing. Larvae can also be used to assess toxicity and there is a strong correlation between the toxicity of compounds in larvae and mammals.
PS9 stock solutions were prepared in DMSO (≤10%) and deionized water and maintained at room temperature.
The greater wax G. mellonella sixth instar larvae were purchased from Live foods Direct Ltd. Sheffield, UK, and kept in the dark at 15 °C to suspend pupation. Healthy larvae with no appearance of melanization and weighing 150–250 mg were selected and stored in sterile nine cm Petri dishes containing wood shavings.

[8] = tested on: SH28; experiment: MBC on environmental MDR isolate; conditions: Aeromonas caviae
[9] = tested on: B. subtilis; experiment: Combination study with AMP or CIP
[10] = tested on: S. aureus; experiment: Combination study with AMP or CIP
[11] = tested on: HK1; experiment: MIC on environmental MDR isolate (microdilution)
[12] = tested on: HK43; experiment: MIC on environmental MDR isolate (microdilution); conditions: Exiguobacterium mexicanum
[13] = tested on: SH28; experiment: MIC on environmental MDR isolate (microdilution); conditions: Aeromonas caviae
[14] = tested on: SH34; experiment: MIC on environmental MDR isolate (microdilution); conditions: Serratia marcescens
[15] = tested on: LG51; experiment: MIC on environmental MDR isolate (microdilution); conditions: Escherichia coli
[16] = tested on: JST61; experiment: MIC on environmental MDR isolate (microdilution); conditions: Pantoea agglomerans

T1 sequence (P9WK19 whole entry): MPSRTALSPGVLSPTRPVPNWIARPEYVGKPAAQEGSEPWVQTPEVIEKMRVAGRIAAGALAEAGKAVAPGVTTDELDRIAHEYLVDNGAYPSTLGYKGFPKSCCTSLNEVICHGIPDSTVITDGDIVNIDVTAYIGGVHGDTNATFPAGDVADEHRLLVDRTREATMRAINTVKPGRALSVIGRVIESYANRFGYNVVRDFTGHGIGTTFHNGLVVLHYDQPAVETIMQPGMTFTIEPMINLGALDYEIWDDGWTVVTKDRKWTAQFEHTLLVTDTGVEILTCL

With `O=C1Nc2ccc(F)cc2/C1=N\NC(=O)c1cc(-c2cccc(Br)c2)n[nH]1` [PS9, (E)-3-(3-Bromophenyl)-N′-(5-Fluoro-2-Oxoindolin-3-Ylidene)-1H-Pyrazole-5-Carbohydrazide] the Ki [1] was 310 nM, the inhibition at 250 µg/mL ([2]; Pseudomonas aeruginosa) was at least 94% and the “% Growth Inhibition at 250 µg/mL” value ([2]; listed as C00009) was 100%. The “MBC/MIC Ratio (R*)” value [3] was 4, the MBC ([3]; Enterococcus faecalis) was 32 µg/mL (≈ 74.7 µM) and the growth ([4]; 2MIC and MIC) was “no growth observed up to 24 h”. The “time after inoculation at which log phase was observed” value ([4]; ½ MIC) was 6 h, the growth ([5]; 2MIC) was “no growth was observed in both cultures at 2MIC concentration till 24 h” and the growth ([5]; MIC) was “no significant growth was found at MIC up to 10 h”. The viability at 48 h, 100 µg/mL ([6]; 100 µg/mL) was over 90%, the viability at 48 h ([6]; up to 200 µg/mL) was over 75% and the larval survival [7] was 100%. For the same compound, the MBC [8] was 512 µg/mL (≈ 1200 µM), the “MIC in Combination” value ([9]; combination PS9 + AMP) was 4 µg/mL and the “MIC in Combination” value ([9]; combination PS9 + CIP) was 8 µg/mL. The FICI ([9]; combination with AMP) was 0.62, the “Mode of Interaction” value ([9]; combination with AMP) was “Indifferent (in between 0.5 and 4)” and the FICI ([9]; combination with CIP) was 4.25. The “MIC in Combination” value ([10]; combination PS9 + AMP) was 4 µg/mL, the “MIC in Combination” value ([10]; combination PS9 + CIP) was 8 µg/mL and the FICI ([10]; combination with AMP) was 0.37. For the same compound, the FICI ([10]; combination with CIP) was 0.28, the MIC [11] was 16 µg/mL (≈ 37.4 µM) and the “MIC lower than standard antibiotic AMP” value ([11]; isolate HK1) was 16 times. The “MIC lower than third-generation drug CTX” value ([11]; isolate HK1) was 8 times, the MIC [12] was 16 µg/mL (≈ 37.4 µM) and the MIC [13] was 128 µg/mL (≈ 299 µM). The MIC [14] was over 1020 µg/mL, the MIC [15] was 1000 µg/mL (≈ 2340 µM) and the MIC [16] was 1000 µg/mL (≈ 2340 µM).

Source: paper PMC9405123, “Design, Synthesis and Mechanistic Studies of Novel Isatin-Pyrazole Hydrazone Conjugates as Selective and Potent Bacterial MetAP Inhibitors” (Antibiotics, 2022)
